Experimental data as given in patent publication US20110160272A1, “METHODS AND COMPOSITIONS FOR USE OF ANGIOGENESIS INHIBITORS IN THE PREVENTION AND/OR CONTROL OF EPILEPSY” (priority 2004, published 2011).

System: KASE rats
Assay: Effect of angiogenesis inhibitor on spontaneous seizure development after kainic acid-induced status epilepticus (KASE)
Assay type: in vivo, rat
Settings: KASE rats (n=4); twice daily injections for fourteen consecutive days beginning one week following KASE; first three weeks of monitoring, daily 8-hour observation sessions; relative to untreated KASE or control rats
Description: We have administered HET0016, an inhibitor of angiogenesis, during the “latent period” that follows KASE and precedes the emergence of spontaneous seizures, to assess whether the development of spontaneous seizures could be impeded. Optimal doses for achieving antiangiogenesis have been established for some of these compounds in other pathological contexts and we have acquired some knowledge of the progression of angiogenesis following KASE using our temporal BrdU assay. On the basis of these observations, we administered a proven antiangiogenic compound at the optimal dosage established in other pathological contexts. This compound was administered to KASE rats (n=4) via twice daily injections for fourteen consecutive days, beginning one week following KASE. Four untreated KASE rats (n=4) received sham injections of diluent and were processed in parallel. Control rats (n=2) received neither KASE nor antiangiogenic therapy. The occurrence of spontaneous seizures in these cohorts was monitored during daily during 8-hour observation sessions beginning one week following KASE, and continues to the present.

CCCCc1ccc(N=CNO)c(C)c1 [HET0016]
development of spontaneous seizures (cumulative seizures, FIG. 7): impeded the development of spontaneous seizures
